Test results taken from US20050234119A1, “Antiparasitical agents and methods for treating, preventing and controlling external parasites in animals” (priority 2004, published 2005).

Tests used:
[1] = Concentration in blood plasma of dogs after oral solution of the thioamide derivative of fipronil; assay type: in vivo
Procedure: An oral formulation (solution) comprising 100 mg/ml of thioamide derivatives of fipronil dissolved in 60:40 propylene glycol: glycerol formal was administered to dogs and the concentration of fipronil in blood plasma measured at 6 hours, day 1, day 2, and day 7 and is presented below

[2] = Concentration in the fur of a dog after topical spot-on solution of the thioamide; assay type: in vivo; settings: 0.1 ml/kg
Procedure: A topical spot-on solution of the thioamide solution containing 100 mg/ml of thioamide and diethylene glycol monoethyl ether was applied to the fur of a dog at the dose rate of 0.1 ml/kg of body weight. The concentration of fipronil in the fur was measured on day 2 and day 7.

[3] = In vitro degradation studies of the thioamide derivative of fipronil in CH3CN/H2O under degradation agents; assay type: physicochemical
Procedure: A solution containing thioamide derivative of fipronil in a solution of CH3CN/H2O (50:50 v/v) and the solution was subjected to the following degradation agents: 0.5 N HCl; 0.5 N NaOH; 5% H2O2; UV light; fluorescent light and heat (65° C.).

NC(=S)c1nn(-c2c(Cl)cc(C(F)(F)F)cc2Cl)c(N)c1[S+]([O-])C(F)(F)F (stereo not shown) [thioamide derivative of fipronil]
concentration in blood plasma ([1]; Pre-treatment, oral solution 100 mg/ml thioamide derivative in 60:40 propylene glycol:glycerol formal): 0.0 µg/g | concentration at 6 h ([1]; dog, plasma, Day 0.25 (6 hours), oral solution 100 mg/ml thioamide derivative): 262000 ng/g | concentration at 1 day ([1]; dog, plasma, Day 1, oral solution 100 mg/ml thioamide derivative): 162000 ng/g | concentration at 2 day ([1]; dog, plasma, Day 2, oral solution 100 mg/ml thioamide derivative): 129000 ng/g | concentration at 7 day ([1]; dog, plasma, Day 7, oral solution 100 mg/ml thioamide derivative): 54600 ng/g | in-vivo degradation into fipronil ([1]; oral solution): degrades into fipronil in-vivo in amounts that are sufficient for efficacy | concentration at 2 day ([2]; Day 2, topical spot-on 100 mg/ml thioamide in diethylene glycol monoethyl ether): 363000 ng/g | concentration at 7 day ([2]; Day 7, topical spot-on 100 mg/ml thioamide in diethylene glycol monoethyl ether): 59300 ng/g | stability in acid ([3]; 0.5 N HCl): Thioamide derivative stable in acid with only | amounts of fipronil formed ([3]; 0.5 N HCl, 4 days): negligible | thioamide derivative degraded ([3]; 0.5 N HCl, in 4 days, solution of CH3CN/H2O (50:50 v/v)): 2.7% | fipronil formed ([3]; 0.5 N NaOH, 1 hour): hour, but no fipronil was formed | thioamide derivative degraded ([3]; 0.5 N NaOH, in 1 hour, CH3CN/H2O (50:50 v/v)): 95% if the thioamide derivative degraded in 1 | fipronil formed ([3]; 5% H2O2, 1.5 hours): 1.5 hours but no fipronil was formed; fipronil | fipronil sulfone formed ([3]; 5% H2O2, 1.5 hours): sulfone was formed. | thioamide derivative degraded ([3]; 5% H2O2, in 1.5 hours, CH3CN/H2O (50:50 v/v)): 100% of the thioamide derivation degraded in | degraded to fipronil ([3]; Fluorescent light, in 4 days, CH3CN/H2O (50:50 v/v)): 23% degraded to fipronil in 4 days. | degraded to fipronil ([3]; Heat (65° C.), in 4 days, CH3CN/H2O (50:50 v/v)): 20% of the thioamide derivation degraded to | thioamide derivative degraded ([3]; UV light, in 1 hour, CH3CN/H2O (50:50 v/v)): 24% of the thioamide derivation degraded in 1
